Key:
H460 cells = test: MTT assay, viability of H460 cells; type: cell-based; conditions: Homo sapiens, NCI-H460, 72 h, three days, read-out: IC50 against the viability
Procedure: (§1) Cells were seeded into 96-well plates at a density of 1-2 × 10^3 cells/well and incubated for 24 h. Cells were treated with vehicle or various concentrations of test compounds for two (PC9 and PC9/ER cells) or three (other cells) days. Cells were further incubated with MTT solution (final concentration of 500 μg/mL) for 4 h at 37 °C. The formazan products were dissolved in dimethyl sulfoxide (DMSO), and the absorbance was measured at 570 nm. The data are presented as a percentage of the control group.

NSCLC cell lines = test: MTT assay, viability of various NSCLC cell lines; type: cell-based; conditions: Homo sapiens; NSCLC cells with various genetic backgrounds and histologies
Procedure: as §1

H1299/CsR cells = test: MTT assay, viability of cisplatin-resistant H1299/CsR cells; type: cell-based; conditions: Homo sapiens, NCI-H1299, 72 h, three days, read-out: IC50 against the viability
Source text: Human lung cancer cell lines (A549, H1299, H1993, H1944, H226B, H226Br, H460, H522, HCC15, and PC9), a diploid human lung fibroblast cell line (Wi38), and the Lewis lung carcinoma (LLC) cell line were purchased from the American Type Culture Collection (ATCC, Manassas, VA, USA) or kindly provided by Dr. John V. Heymach (MD Anderson Cancer Center, Houston, TX, USA). Human retinal pigment epithelial (RPE) cells were kindly provided by Dr. Jeong Hun Kim (College of Medicine, Seoul National University, Seoul, Republic of Korea). HT-22 cells were provided by Dr. Dong Gyu Jo (College of Pharmacy, Sungkyunkwan University, Suwon, Republic of Korea). Lung cancer cells were cultured in RPMI 1640 medium supplemented with 10% fetal bovine serum (FBS) and antibiotics (Welgene, Gyeongsan-si, Republic of Korea). LLC, HT-22, and Wi38 cells were maintained in DMEM supplemented with 10% FBS and antibiotics. RPE cells were maintained in DMEM/F12 supplemented with 10% FBS and antibiotics. […]
Cells were seeded into 96-well plates at a density of 1-2 × 10^3 cells/well and incubated for 24 h. […] The formazan products were dissolved in dimethyl sulfoxide (DMSO), and the absorbance was measured at 570 nm. […]

H1944 cells = test: MTT assay, viability of H1944 cells; type: cell-based; conditions: Homo sapiens, NCI-H1944, 72 h, three days, read-out: IC50 against the viability
Procedure: as §1

LLC allografts = test: Spontaneous lung metastasis of LLC allografts; type: in vivo, C57BL/6 mice; conditions: 80 mg/kg orally, daily for 2 weeks
Procedure: We used the IVIS-Spectrum microCT and Living Image (ver. 4.2) software (PerkinElmer, Alameda, CA, USA) for monitoring metastatic tumor formation in the lungs. The instrument was operated according to the manufacturer's instruction. To facilitate the detection of photons emitted from metastatic lung tumors, we performed ex vivo imaging analysis. In brief, mice were injected at 60 mg/kg with the 15 mg/mL stock of luciferin prior to anesthesia. After 10-15 min, mice were euthanized, and lung tissues were excised and placed into a 60 mm dish. Tissues were immediately imaged after exposure for 1 min.

Toxicity test in mice = type: in vivo, FVB mice
Procedure: Blood was collected from euthanized mice under isoflurane-induced deep anesthesia by cardiac puncture. After allowing blood coagulation at 4 °C, serum was collected by centrifugation at 3,000 rpm for 10 min at 4 °C. Analysis of the serum levels of alanine aminotransferase (ALT) and aspartate aminotransferase (AST) was performed using a veterinary hematology analyzer (Fuji DRI-Chem 3500s, Fujifilm, Tokyo, Japan) according to the manufacturer' s protocols.

[1] = tested on: Wi38, RPE, and HT-22 cells; test: MTT assay, viability of normal cells; type: cell-based, human, mouse
Procedure: as §1

H226Br cells = test: MTT assay, viability of H226Br cells; type: cell-based; conditions: Homo sapiens, 72 h, three days, read-out: IC50 against the viability
Procedure: as §1

H1993 cells = test: MTT assay, viability of H1993 cells; type: cell-based; conditions: Homo sapiens, NCI-H1993, 72 h, three days, read-out: IC50 against the viability
Procedure: as §1

NSCLC cells [2] = test: Anchorage-independent (soft agar) colony formation assay; type: cell-based, human; conditions: subset of NSCLC cells
Procedure: Cells (2-3 × 10^3 cells/well) were mixed with sterile 1% agar solution (final concentration of 0.4%) and poured onto 1% base agar in 24-well plates. After solidification of the top agar, LL6 was diluted in complete medium and added to the agar. Cells embedded in the top agar were incubated for 10-14 days at 37 °C with 5% CO2. The LL6-containing medium was changed twice a week. After incubation, the colonies were stained with MTT solution, imaged, and counted using ImageJ software (National Institutes of Health, Bethesda, […], USA).

NSCLC cells [3] = test: Transwell migration assay; type: cell-based, human; conditions: concentration-dependent, 8-12 h after treatment
[4] = tested on: H1944 and A549 NSCLC cells; test: Apoptosis (PARP cleavage, chromatin condensation, sub-G1 phase); type: cell-based, human; conditions: LL6 2.5 µM; LDB = linsitinib 2 µM, dasatinib 50 nM, bemcentinib 100 nM
Procedure: Before harvesting, the cells were stimulated with 10% FBS for 20 min. Total cell lysates were prepared with modified radioimmunoprecipitation assay lysis buffer (50 mM Tris-HCl [pH 7.4], 150 mM NaCl, 1 mM EDTA, 0.25% sodium deoxycholate, 1% Triton X-100, 100 mM NaF, 5 mM Na3VO4, 1 mM PMSF, 1 μg/mL aprotinin, 1 μg/mL leupeptin, and 1 μg/mL pepstatin). Equal amounts of protein (20 μg) were subjected to 8% SDS-PAGE and electrically transferred onto polyvinylidene difluoride membranes (Bio-Rad Laboratories, Hercules, CA, USA). Membranes were blocked with blocking buffer (3% BSA in Tris-buffered saline containing 0.1% Tween-20 [TBST]) for 1 h at room temperature. The membranes were incubated with primary antibodies diluted in 3% BSA in TBST (1:1,000) overnight at 4 °C, washed multiple times with TBST, and incubated with secondary antibodies diluted in 3% nonfat dry milk in TBST (1:5,000) for 1 h at room temperature. The membranes were washed multiple times with TBST and visualized using an enhanced chemiluminescence detection kit (Thermo Fisher Scientific). Densitometric analysis was performed using ImageJ software.

[5] = LL6-treated mice vs vehicle-treated control

IC50 (H460 cells): 3.43 µM | IC50 (H1299/CsR cells): 1.07 µM | IC50 (H1944 cells): 1.02 µM | IC50 (H226Br cells): 4.32 µM | IC50 (H1993 cells): 7.79 µM
SMILES: Nc1ncnc2c1c(-c1ccc(Cl)cc1)nn2CCn1cc(COc2ccc(Nc3nccc(Nc4cnc5ccccc5c4)n3)cc2)nn1 [LL6]
IC50 (NSCLC cell lines): ~2.5 µM | metastatic tumor nodules in the lungs (LLC allografts): significantly decreased | histological alterations in major organs, including the lung and liver (Toxicity test in mice; H&E-stained tissues): did not cause detectable histological alterations | serum ALT level (Toxicity test in mice; [5]): remained unchanged | serum AST level (Toxicity test in mice; [5]): remained unchanged | body weight (Toxicity test in mice; mice, LL6 20, 40, and 80 mg/kg daily for 2 weeks): remained unchanged | cytotoxicity in normal cells compared with the LDB combination [1]: markedly less cytotoxicity | colony formation, anchorage-independent (NSCLC cells [2]): significantly suppressed | migration of NSCLC cells (NSCLC cells [3]): effectively suppressed | proapoptotic effects (PARP cleavage, chromatin condensation, sub-G1 phase) [4]: notably induced apoptosis
